The numbers were not newly measured in patent US11813289B2, “Encapsulated antimicrobials and related methods of treatment” (ADVANTAGE SILVER DENTAL ARREST, LLC, priority 2018, dated 2023), which cites them from elsewhere.

For this series, the system named is dentinal caries lesions. The note with it: lesions that had progressed into the dentin.

For the substance silver diamine fluoride [SDF], the “dentinal caries lesions arrested after treatment” value is recorded as “two-thirds”.
